Source: publication PMC2248166, “Quantitative peptide binding motifs for 19 human and mouse MHC class I molecules derived using positional scanning combinatorial peptide libraries” (Immunome Research, 2008)
Where a SMILES comes first, the peptide text is derived from it.

Target: HLA A*3001 (Homo sapiens, UniProt P04439, D140H/D185E/E176W/F33S/G80R/H175R/K168Q/R138E/R41S)
Test: biochemical
Format: binding

Chain of HLA A*3001 (P04439 25-365 limits assumed, stated change not applied): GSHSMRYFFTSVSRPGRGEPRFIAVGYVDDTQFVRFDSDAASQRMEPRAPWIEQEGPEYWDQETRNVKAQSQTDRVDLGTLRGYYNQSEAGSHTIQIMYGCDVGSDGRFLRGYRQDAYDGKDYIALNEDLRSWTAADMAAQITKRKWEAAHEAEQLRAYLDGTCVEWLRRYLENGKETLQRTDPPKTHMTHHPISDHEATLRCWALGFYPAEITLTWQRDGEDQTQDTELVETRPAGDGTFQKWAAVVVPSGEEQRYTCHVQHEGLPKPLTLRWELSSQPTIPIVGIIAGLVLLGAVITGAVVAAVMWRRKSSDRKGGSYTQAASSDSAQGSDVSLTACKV

Row | SMILES | IC50 [nM]
1 | CC[C@H](C)[C@H](NC(=O)[C@@H](NC(=O)[C@H](Cc1ccccc1)NC(=O)[C@H](CCSC)NC(=O)[C@@H](NC(=O)[C@@H](N)CCCCN)C(C)C)C(C)C)C(=O)N[C@@H](CCCNC(=N)N)C(=O)N[C@@H](Cc1ccccc1)C(=O)N[C@@H](CCCCN)C(=O)O [3102.0133] (H-KVMFVIRFK-OH) | 0.6
2 | CSCC[C@H](NC(=O)[C@H](Cc1c[nH]cn1)NC(=O)[C@H](CC(N)=O)NC(=O)[C@H](CCCNC(=N)N)NC(=O)[C@H](Cc1ccccc1)NC(=O)[C@@H](N)CCCNC(=N)N)C(=O)N[C@@H](CS)C(=O)N[C@@H](CC(C)C)C(=O)N[C@H](C(=O)O)C(C)C [3102.0134] (H-RFRNHMCLV-OH) | 31
3 | CC(C)[C@H](NC(=O)[C@@H](N)CO)C(=O)N[C@@H](CCCCN)C(=O)N[C@@H](CS)C(=O)N[C@@H](CCC(N)=O)C(=O)N[C@@H](CO)C(=O)N1CCC[C@H]1C(=O)N1CCC[C@H]1C(=O)N[C@@H](CO)C(=O)O [3102.0135] (H-SVKCQSPPS-OH) | 17
4 | CC[C@H](C)[C@H](NC(=O)[C@@H]1CCCN1C(=O)CNC(=O)[C@H](CCSC)NC(=O)[C@H](CCCCN)NC(=O)[C@H](CCC(N)=O)NC(=O)[C@@H](N)CCCCN)C(=O)N[C@@H](Cc1ccc(O)cc1)C(=O)N[C@@H](C)C(=O)O [3102.0136] (H-KQKMGPIYA-OH) | 22
5 | CC[C@H](C)[C@H](NC(=O)[C@H](CCCCN)NC(=O)[C@H](CC(N)=O)NC(=O)[C@H](CC(N)=O)NC(=O)[C@H](CCCCN)NC(=O)[C@@H](NC(=O)[C@@H](N)CCSC)C(C)C)C(=O)N[C@@H](CCC(N)=O)C(=O)N[C@@H](CCCCN)C(=O)O [3102.0137] (H-MVKNNKIQK-OH) | 12
6 | CC[C@H](C)[C@H](NC(=O)[C@H](Cc1ccccc1)NC(=O)[C@H](CCCCN)NC(=O)[C@H](Cc1ccc(O)cc1)NC(=O)[C@H](Cc1ccccc1)NC(=O)[C@H](C)NC(=O)[C@H](CCCCN)NC(=O)[C@@H](NC(=O)[C@@H](N)Cc1c[nH]cn1)C(C)C)C(=O)O [3102.0138] (H-HVKAFYKFI-OH) | 0.35
7 | CC[C@H](C)[C@H](NC(=O)[C@H](C)NC(=O)[C@H](CCCNC(=N)N)NC(=O)[C@@H](NC(=O)[C@@H](N)CCCNC(=N)N)[C@@H](C)O)C(=O)N[C@@H](CC(N)=O)C(=O)N[C@@H](CCCCN)C(=O)N[C@@H](Cc1ccc(O)cc1)C(=O)N[C@@H](CO)C(=O)O [3102.0141] (H-RTRAINKYS-OH) | 13
8 | CC(C)[C@H](NC(=O)[C@H](Cc1ccc(O)cc1)NC(=O)[C@H](CO)NC(=O)[C@H](Cc1ccc(O)cc1)NC(=O)[C@@H](NC(=O)[C@@H]1CCCN1C(=O)[C@H](CCCCN)NC(=O)[C@H](Cc1ccc(O)cc1)NC(=O)[C@@H](N)CCCCN)C(C)C)C(=O)O [3102.0143] (H-KYKPVYSYV-OH) | 0.74
9 | CC(C)[C@H](NC(=O)[C@H](CCCCN)NC(=O)[C@H](Cc1ccccc1)NC(=O)[C@@H](NC(=O)[C@H](CC(=O)O)NC(=O)[C@H](Cc1ccc(O)cc1)NC(=O)[C@H](CCCNC(=N)N)NC(=O)[C@@H](NC(=O)[C@@H](N)CCCNC(=N)N)[C@@H](C)O)[C@@H](C)O)C(=O)O [3102.0144] (H-RTRYDTFKV-OH) | 0.2
10 | CC(C)C[C@H](NC(=O)[C@H](Cc1ccccc1)NC(=O)[C@H](CO)NC(=O)[C@H](CCCCN)NC(=O)[C@H](CC(C)C)NC(=O)[C@H](CCC(N)=O)NC(=O)[C@H](CCCCN)NC(=O)[C@H](CO)NC(=O)[C@@H](N)CCCCN)C(=O)O [3102.0146] (H-KSKQLKSFL-OH) | 13
11 | CC[C@H](C)[C@H](NC(=O)[C@H](Cc1ccc(O)cc1)NC(=O)[C@H](CC(C)C)NC(=O)[C@@H]1CCCN1C(=O)[C@H](CC(=O)O)NC(=O)[C@H](CCCNC(=N)N)NC(=O)[C@@H](NC(=O)[C@@H](N)CCSC)[C@@H](C)O)C(=O)N[C@@H](Cc1ccc(O)cc1)C(=O)O [3102.0147] (H-MTRDPLYIY-OH) | 17
12 | C[C@H](N)C(=O)N[C@H](C(=O)N[C@@H](C)C(=O)N[C@@H](CCCNC(=N)N)C(=O)N[C@@H](CO)C(=O)N[C@@H](CO)C(=O)N1CCC[C@H]1C(=O)N[C@@H](CCC(=O)O)C(=O)N[C@@H](CCCCN)C(=O)O)[C@@H](C)O [3102.0148] (H-ATARSSPEK-OH) | 0.58
13 | CSCC[C@H](N)C(=O)N[C@H](C(=O)N[C@@H](CCCNC(=N)N)C(=O)N[C@@H](CC(C)C)C(=O)N1CCC[C@H]1C(=O)N[C@@H](Cc1ccc(O)cc1)C(=O)N[C@@H](CCCCN)C(=O)N[C@@H](CC(=O)O)C(=O)N[C@@H](C)C(=O)O)C(C)C [3102.0149] (H-MVRLPYKDA-OH) | 0.76
14 | CC[C@H](C)[C@H](NC(=O)[C@H](CC(N)=O)NC(=O)[C@@H](NC(=O)[C@H](CC(N)=O)NC(=O)[C@H](CCCCN)NC(=O)[C@H](CO)NC(=O)[C@@H](N)CCCCN)[C@@H](C)CC)C(=O)N[C@@H](CCC(=O)O)C(=O)N[C@H](C(=O)O)C(C)C [3102.0150] (H-KSKNINIEV-OH) | 0.32
15 | CC[C@H](C)[C@H](NC(=O)[C@H](CC(=O)O)NC(=O)[C@H](CC(C)C)NC(=O)[C@@H](NC(=O)[C@@H](N)CCCCN)[C@@H](C)O)C(=O)N[C@@H](CO)C(=O)N[C@@H](CO)C(=O)N[C@@H](Cc1ccccc1)C(=O)N[C@@H](Cc1ccc(O)cc1)C(=O)O [3102.0151] (H-KTLDISSFY-OH) | 23
16 | CC(C)[C@H](NC(=O)[C@H](CO)NC(=O)[C@@H](NC(=O)[C@H](Cc1ccc(O)cc1)NC(=O)[C@@H](NC(=O)[C@H](Cc1ccccc1)NC(=O)[C@H](CCCCN)NC(=O)[C@H](CO)NC(=O)[C@H](C)N)C(C)C)C(C)C)C(=O)O [3102.0152] (H-ASKFVYVSV-OH) | 3.1
17 | CC[C@H](C)[C@H](NC(=O)[C@H](CCCCN)NC(=O)[C@H](CO)NC(=O)[C@@H](NC(=O)[C@@H](NC(=O)[C@H](CCCCN)NC(=O)[C@H](CCCNC(=N)N)NC(=O)[C@@H](NC(=O)[C@@H](N)CCCCN)C(C)C)[C@@H](C)CC)[C@@H](C)CC)C(=O)O [3102.0153] (H-KVRKIISKI-OH) | 27
18 | CC(C)C[C@H](NC(=O)[C@H](Cc1ccc(O)cc1)NC(=O)[C@H](CCCNC(=N)N)NC(=O)[C@@H](NC(=O)[C@@H](N)CCCNC(=N)N)C(C)C)C(=O)N[C@H](C(=O)N[C@@H](CCCNC(=N)N)C(=O)N[C@@H](CC(N)=O)C(=O)N[C@@H](Cc1ccc(O)cc1)C(=O)O)[C@@H](C)O [3102.0155] (H-RVRYLTRNY-OH) | 5.6
19 | CC(C)C[C@H](NC(=O)[C@H](Cc1ccccc1)NC(=O)[C@@H](NC(=O)CNC(=O)[C@H](Cc1ccc(O)cc1)NC(=O)[C@H](CCCNC(=N)N)NC(=O)[C@H](Cc1ccc(O)cc1)NC(=O)[C@@H](N)CCCCN)[C@@H](C)O)C(=O)N[C@@H](Cc1ccc(O)cc1)C(=O)O [3102.0156] (H-KYRYGTFLY-OH) | 1.1
20 | CC[C@H](C)[C@H](NC(=O)[C@@H](N)CO)C(=O)N[C@@H](CCCNC(=N)N)C(=O)N[C@@H](CCCNC(=N)N)C(=O)N[C@@H](CC(N)=O)C(=O)N[C@@H](CC(C)C)C(=O)N[C@@H](C)C(=O)N[C@@H](CC(C)C)C(=O)N[C@@H](CCCCN)C(=O)O [3102.0157] (H-SIRRNLALK-OH) | 12
21 | CC(C)C[C@H](NC(=O)[C@H](CC(C)C)NC(=O)[C@H](CCCNC(=N)N)NC(=O)[C@@H](NC(=O)[C@@H](N)CO)C(C)C)C(=O)N[C@@H](CC(N)=O)C(=O)N[C@@H](Cc1ccc(O)cc1)C(=O)N[C@@H](Cc1ccccc1)C(=O)N[C@@H](CCCCN)C(=O)O [3102.0158] (H-SVRLLNYFK-OH) | 0.24
22 | CC[C@H](C)[C@H](NC(=O)[C@H](CO)NC(=O)[C@@H](NC(=O)[C@@H](N)CCCCN)C(C)C)C(=O)N[C@@H](CC(C)C)C(=O)N[C@@H](Cc1c[nH]cn1)C(=O)N1CCC[C@H]1C(=O)N[C@H](C(=O)N[C@@H](CO)C(=O)O)[C@@H](C)CC [3102.0159] (H-KVSILHPIS-OH) | 11
23 | CC[C@H](C)[C@H](NC(=O)[C@H](C)N)C(=O)N[C@@H](CCCNC(=N)N)C(=O)N[C@@H](C)C(=O)NCC(=O)N[C@@H](Cc1ccc(O)cc1)C(=O)N[C@@H](CO)C(=O)N[C@H](C(=O)N[C@H](C(=O)O)C(C)C)[C@@H](C)CC [3102.0160] (H-AIRAGYSIV-OH) | 1.4
24 | CC(C)C[C@H](NC(=O)[C@H](CC(N)=O)NC(=O)[C@H](CC(C)C)NC(=O)[C@H](Cc1c[nH]c2ccccc12)NC(=O)[C@H](CO)NC(=O)[C@H](CC(N)=O)NC(=O)[C@H](CCCCN)NC(=O)[C@H](C)NC(=O)[C@@H](N)CO)C(=O)O [3102.0164] (H-SAKNSWLNL-OH) | 0.57
25 | CC[C@H](C)[C@H](NC(=O)[C@@H]1CCCN1C(=O)[C@H](CCCCN)NC(=O)[C@@H](NC(=O)[C@@H](N)CCCNC(=N)N)[C@@H](C)O)C(=O)N[C@@H](CO)C(=O)N[C@@H](CCSC)C(=O)N[C@@H](Cc1ccc(O)cc1)C(=O)N[C@@H](Cc1ccccc1)C(=O)O [3102.0165] (H-RTKPISMYF-OH) | 0.6
26 | CC[C@H](C)[C@H](NC(=O)[C@H](CO)NC(=O)[C@@H](NC(=O)[C@H](CCC(N)=O)NC(=O)[C@H](CCCCN)NC(=O)[C@@H](NC(=O)[C@@H](N)CCCNC(=N)N)C(C)C)[C@@H](C)CC)C(=O)N[C@@H](CO)C(=O)N[C@H](C(=O)O)[C@@H](C)O [3102.0166] (H-RVKQISIST-OH) | 0.37
27 | CC(C)C[C@H](NC(=O)[C@H](CO)NC(=O)[C@@H]1CCCN1C(=O)[C@H](CC(C)C)NC(=O)[C@H](Cc1ccc(O)cc1)NC(=O)[C@H](CCCNC(=N)N)NC(=O)[C@@H](NC(=O)[C@@H](N)CCCNC(=N)N)[C@@H](C)O)C(=O)N[C@H](C(=O)O)C(C)C [3102.0167] (H-RTRYLPSLV-OH) | 0.49
28 | C[C@@H](O)[C@H](N)C(=O)N[C@H](C(=O)N[C@@H](CCCCN)C(=O)N[C@@H](CC(=O)O)C(=O)N[C@@H](Cc1ccc(O)cc1)C(=O)N[C@@H](Cc1ccccc1)C(=O)N[C@@H](CO)C(=O)N[C@@H](Cc1ccccc1)C(=O)N[C@@H](CCCCN)C(=O)O)[C@@H](C)O [3102.0168] (H-TTKDYFSFK-OH) | 1.2
29 | CC[C@H](C)[C@H](NC(=O)[C@@H](NC(=O)[C@@H](N)CCCNC(=N)N)[C@@H](C)O)C(=O)N[C@@H](CS)C(=O)N[C@H](C(=O)N[C@@H](CC(C)C)C(=O)N1CCC[C@H]1C(=O)N[C@@H](Cc1ccc(O)cc1)C(=O)N[C@@H](CC(C)C)C(=O)O)[C@@H](C)O [3102.0170] (H-RTICTLPYL-OH) | 0.74
